This is an account of results in paper PMC9381536, “Non-apoptotic cell death induction via sapogenin based supramolecular particles” (Scientific Reports, 2022).

A short description of series [1]: Nile red staining (particle formation). It is filed as physicochemical. The settings on record: Nile red, PBS, 3 h. The procedure:
AG-08 and AG were dissolved in DMSO as a 1000-fold concentrated stock added into the filtered PBS, which contain 2.5 µM Nile red. After 3 h incubation at room temperature, the fluorescence intensity was measured with a microplate reader (550 nm for excitation and 635 nm for the emission wavelength) (Varioscan, Thermo Fisher Scientific, US).

The test system of series [2] is HCC1937 cells. As to the kind of experiment: Cytotoxicity of 220 nm filtrates. It is filed as cell-based. The procedure:
Figure 1 AG-08 mediated cytotoxicity relies on the supramolecular structures. (A) Structure of AG-08. (B) The scanning transmission electron micrograph of 16 µM AG-08 in PBS. Figure is a representative image of stained sample with uranyl acetate (5683 × magnification; scale bar 600 nm). (C) After 3 h incubation of Nile red solution with AG-08 or AG, fluorescence intensity of Nile red was measured. (D) AG-08, Staurosporine (Sta) or vehicle samples prepared in the cell condition medium was filtrated by 220 nm filter and HCC1937 cells were exposed to the filtrates. After 24 h, the viability of cells was measured and represented as a percentage of that of the vehicle control. The error bars represent mean value ± s.d. (n = 3). *p < 0.05, **p < 0.005, ***p < 0.001. (E) Tween 20 (1:40,000) was added to the fresh medium before addition of 8 μM AG-08 or vehicle. Then cell medium was replaced with this fresh medium. Cell viability was detected after 24 h incubation. […] TEXT PRINTED IN THE PICTURE: (F) no label printed: Diameter: 153.2±4.6; polydispersity index: 0.218
To verify that the activity of AG-08 arises from its supramolecular structures, freshly prepared AG-08 solutions were filtered using 220 nm-filters to remove AG-08 supramolecular particles from medium, and the filtrates were analyzed for their cytotoxicity. […] Next, Tween-20 was utilized as a non-ionic detergent to block particle formation, and AG-08-mediated cell death was inhibited as expected (Fig. 1E). […]

Series [3] relates to MRC-5. As to the kind of experiment: Cytotoxicity analysis (WST-1). It is filed as cell-based. The settings on record: Homo sapiens, MRC5, MRC-5 normal cell line, 48 h. The procedure:
(§1) HCC1937 (Human breast cancer line), HeLa (Human […]), A549 (Human lung adenocarcinoma), MRC-5 (Human lung fibroblasts), MCF7 (Human breast cancer cells), A549 (human lung carcinoma) were obtained from American Type Culture Collection and maintained as exponentially growing monolayers by culturing according to the supplier’s instructions. MCF7, HeLa, MRC-5, and A549 cell lines were cultured and routinely passaged in DMEM media containing 10% FBS, while HCC1937 cell lines were propagated in RPMI 1640 containing 10% FBS.
(§2) Following the treatment with compounds or vehicle for 48 h, the 10% WST-1 (Roche, Switzerland) in medium was replaced in each 96 well. After 4 h incubation with WST-1 reagent at 37 °C and 5% CO2, the absorbance was measured using a microplate reader at 440 nm (Varioscan, Thermo Fisher Scientific, US). Graph Pad Prism 5 (San Diego, CA, US.) was used to calculate the IC50, which represents the concentration of compounds that is required for 50% inhibition in comparison to the vehicle-treated controls. The experiments were repeated three times independently.
A general note: Formazan colour is commonly taken as a measure of viable cells.

The subject of series [4] is MCF7. The series is described as follows: Cytotoxicity analysis (WST-1). It is filed as cell-based. The settings on record: Homo sapiens, MCF7, 48 h. The procedure: as §1, §2
Series [5] concerns HeLa. The series is described as follows: Cytotoxicity analysis (WST-1). It is filed as cell-based. The settings on record: Homo sapiens, 48 h. The procedure:
as §1, §2

Series [6] concerns Calnexin. The series is described as follows: Calnexin immunofluorescence. The settings on record: AG-08 treated cells. It is filed as cell-based. The source says: Figure 3 mRNA microarray analysis was used to identify differentially expressed genes via AG-08 treatment. (A) Heatmap representing the expressions of 193 genes with significant different expression in AG-08 treated cells compared with control. Heatmap was generated by GraphPad Prism version 8 (https://www.graphpad.com/scientific-software/prism/). (B) Protein–protein network analysis was formed via STRING. The thickness of the connecting lines indicates the strength of data support for physical and/or functional associations. (C) Pathway enrichment was determined using GO, KEGG, and Reactome pathway analysis. […] Size of circle represents the significance of enrichment. (D) The protein levels of CHOP were determined via IB. 0.5 µg/ml tunicamycin (Tun) was used as positive control. The experiments were repeated three times independently; with one representative result shown. (E) mRNA level of the CHOP was investigated using quantitative PCR (q-RTPCR). Error bars represent standard error (s.e.). p-values were calculated with respect to vehicle-treated cells by one-way Anova test. (**p < 0.005, ****p < 0.0001). (F) The expression and localization of Calnexin protein were evaluated using immunofluorescence via anti-Calnexin antibody (scale bar 25 µm).
Cells were grown on glass coverslips and treated with AG-08. […] Mounted samples were analyzed by fluorescence microscopy (Olympus IX70, Japan).

Series [7] deals with HCC1937. Details: method as in PMID 33136369. The settings on record: cited from earlier work.

The IC50 is the concentration that gives 50% inhibition. Regarding `Cc1ccc(S(=O)(=O)OC2CCC3(C)C4=CCC5(C)C(C6(C)CCC(C(C)(C)O)O6)C(O)CC5(C)C4C=CC3C2(C)C)cc1` (stereo not shown) [AG-08], in series [1], the critical assembly concentration entry is on record as “approximately 2 µM”. For the same compound, the “cytotoxicity of filtrate after 220 nm filtration” value in series [2] is recorded as “no longer exhibited any cytotoxicity”. Besides, the half-inhibitory concentration (IC50) in series [3] is 2.58 µM; in series [4], 3.78 µM; in series [5], 5.7 µM; in series [7], 3.81 µM. Moreover, the “intensity of calnexin staining” value in series [6] was “significantly increased”.
